For this assay, the system named is Saccharomyces cerevisiae ABC16-Green Monster. In words: growth inhibition at single dose (up to 150 µM), below the 70% cut-off for dose-response; higher = more potent. To be noted: 18 h; 30 °C; YPD. Summed up: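 Drug-sensitive S. cerevisiae ABC16-Green Monster cells were grown overnight in YPD at 30 °C and diluted to log phase (OD600 0.1–0.2). Each library compound was added at one dose of 150 µM to 200 µl culture per well in 96-well plates, in biological duplicates, with untreated cultures alongside. OD600 was read at 0 h and after 18 h at 30 °C. The value is percent growth inhibition; compounds below 70% in both replicates were not taken to dose-response.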

The values that follow come from the supplement of paper PMC8837787.

`CCOc1ccc(CN2CCN(CC(O)COc3ccc(OCC(O)CN4CCN(Cc5ccc(OCC)cc5)CC4)cc3)CC2)cc1` (stereo not drawn): the “growth inhibition at single dose” value is less than 70%.

Consider `Oc1c2c(nc3cc(-c4ccccc4)nn13)CCCC2`, for which the “growth inhibition at single dose” value is less than 70%.

Turning to `CC(Oc1cccc(Cl)c1)C(=O)Nc1ccc2oc(-c3ccncc3)nc2c1` (stereo not drawn), the “growth inhibition at single dose” value was less than 70%.

Take `CC(C)(C)c1ccc(C(=O)NCCOc2ccccc2Cl)cc1`: the “growth inhibition at single dose” value was less than 70%.

Consider `COc1ccc(OC)c(C2C3=C(CC(C)(C)CC3=O)N(c3ccc(Cl)c(Cl)c3)C3=C2C(=O)CC(C)(C)C3)c1`, for which the “growth inhibition at single dose” value is less than 70%.

For `Cc1ccc(-c2cnn3c(NCCN(C)C)cc(C)nc23)cc1`, the “growth inhibition at single dose” value was less than 70%.

Take `CCN(CC)C(=O)N1CCN(C)CC1`: the “growth inhibition at single dose” value was less than 70%.

Regarding `Cc1ccc2cc3c(N)c4c(C)ccc(C)c4nc3nc2c1`, the “growth inhibition at single dose” value was less than 70%.

Take `COc1ccc(C2=NCCN2)cc1-c1cn(-c2cccc(C3=NCCN3)c2)nn1`: the “growth inhibition at single dose” value is less than 70%.

On to `COc1ccc(CC(=O)N2CCN(C)c3nc4ccccc4nc32)cc1F`, for which the “growth inhibition at single dose” value was less than 70%.

Take `CCc1nc2ccc(C(=O)NCc3ccc4c(c3)OCO4)cn2c1N(C)Cc1cccs1`: the “growth inhibition at single dose” value was less than 70%.

Turning to `COCCN1COc2c(cc(Cl)c3cccnc23)C1`, the “growth inhibition at single dose” value was less than 70%.

As to `O=C(c1c[nH]c2ccccc12)C(c1ccccc1)N1CCN(CC(=O)N2CCCC2)CC1` (stereo not drawn), the “growth inhibition at single dose” value is less than 70%.

For the compound `COc1cc2ncnc(NC3CCN(Cc4ccccc4)CC3)c2cc1OC`, the “growth inhibition at single dose” value is less than 70%.

Consider `CC(C)CCNCC(O)Cn1c2ccccc2c2ccccc21` (stereo not drawn), for which the “growth inhibition at single dose” value is less than 70%.

As for `CCc1c(C(=O)Nc2ccn(CCc3ccccn3)n2)cnn1C(C)(C)C`, the “growth inhibition at single dose” value is less than 70%.

As to `CC(C)(C)c1ccc(C(=O)Nc2cc(F)ccc2F)s1`, the “growth inhibition at single dose” value was less than 70%.

On to `CN(C)c1nc(N)nc(CN(Cc2nc(N)nc(N(C)C)n2)C23CC4CC(CC(C4)C2)C3)n1`, for which the “growth inhibition at single dose” value was less than 70%.

`O=C(Nc1nccs1)c1ccc(N2CCCCCC2)nc1`: the “growth inhibition at single dose” value is less than 70%.

Consider `OC1CCC(Nc2nn3cc(-c4ccccc4)nc3s2)CC1` (stereo not drawn), for which the “growth inhibition at single dose” value is less than 70%.

On to `Cc1ccc(-c2cc3c(nn2)-c2ccccc2C3=O)cc1`, for which the “growth inhibition at single dose” value was less than 70%.

As to `CCOC(=O)c1c(C)[nH]c(C(=O)CSc2nccn2C)c1C`, the “growth inhibition at single dose” value was less than 70%.

In the case of `Cc1cc(Nc2ccc3ccccc3c2)n2ncnc2n1`, the “growth inhibition at single dose” value was less than 70%.

For `CC(=O)c1c(C)[nH]c(C(=O)Nc2ccc(Oc3ccccc3Cl)cc2)c1C`, the “growth inhibition at single dose” value is less than 70%.

As to `Cc1cc(C)c2nc(N3CCC(C(=O)NCCCN4CCC(N5CCCCC5)CC4)CC3)sc2c1`, the “growth inhibition at single dose” value was less than 70%.

Consider `CCn1nnnc1Sc1nc(C)nc2sc3c(c12)CCC3`, for which the “growth inhibition at single dose” value was less than 70%.

In the case of `Oc1ccc(Br)cc1CN1CCN(Cc2cccc(F)c2)CC1`, the “growth inhibition at single dose” value was less than 70%.

As to `CCOC(=O)c1c(C)n(-c2ccc(Cl)cc2)c2ccc(OC(=O)C=Cc3ccccc3)cc12`, the “growth inhibition at single dose” value was less than 70%.

Consider `Cc1c(C)n(CCCO)c2ncn3nc(-c4ccccc4O)nc3c12`, for which the “growth inhibition at single dose” value is less than 70%.

As to `CCn1nc(C(=O)NCc2ccc(OC)cc2)c2c1CCN(C(=O)c1cc(C)n[nH]1)C2`, the “growth inhibition at single dose” value was less than 70%.

As for `Cc1cc2ccccc2n1CC(=O)N1CC(C(=O)N2CCCCC2)Oc2ccccc21` (stereo not drawn), the “growth inhibition at single dose” value is less than 70%.

In the case of `COC(=O)c1ccc(F)cc1NS(=O)(=O)c1cccc(-c2cnn(Cc3ccccc3)c2)c1`, the “growth inhibition at single dose” value was less than 70%.

As to `CC(NCc1ccccc1)c1cc(Cl)ccc1O` (stereo not drawn), the “growth inhibition at single dose” value is less than 70%.

In the case of `Cc1cccc(N2C(=O)C3C(C2=O)C2(c4ccccc4)C(=O)C3(c3ccccc3)C(c3ccc4c(c3)OCO4)=C2c2ccc3c(c2)OCO3)c1` (stereo not drawn), the “growth inhibition at single dose” value was less than 70%.

On to `COc1ccc(S(=O)(=O)NN(C)c2nc(C(F)(F)F)nc3ccccc23)cc1`, for which the “growth inhibition at single dose” value was less than 70%.

Turning to `CC1CC1C(=O)NC1CCN(CC2(c3ccccc3)CCCCC2)CC1` (stereo not drawn), the “growth inhibition at single dose” value is less than 70%.

As for `CC(C)c1ccc(CNCC(O)c2ccccc2)cc1` (stereo not drawn), the “growth inhibition at single dose” value is less than 70%.

As to `Cc1cc(C(=O)COc2ccc(C(N)=O)cc2)c(C)n1-c1ccc2c(c1)OCO2`, the “growth inhibition at single dose” value was less than 70%.

On to `CNc1snc(C)c1C(=O)OCc1coc(-c2cccs2)n1`, for which the “growth inhibition at single dose” value was less than 70%.

Consider `O=C(Nc1ncccc1O)c1ccc(S(=O)(=O)NCc2ccco2)cc1`, for which the “growth inhibition at single dose” value was less than 70%.

`CCOc1ccc(C2N(C)c3ccccc3N2C)cc1`: the “growth inhibition at single dose” value was less than 70%.

Take `COc1ccc(-c2cc3c(SCC(=O)Nc4cc(C(F)(F)F)ccc4Cl)nccn3n2)cc1`: the “growth inhibition at single dose” value is less than 70%.

Turning to `O=c1cc(NC2CCN(CCCc3ccccc3)CC2)c2cc(Cl)ccc2o1`, the “growth inhibition at single dose” value is less than 70%.

For the compound `O=C(COc1ccc(Oc2ccccc2)cc1)NCc1cn2ccccc2n1`, the “growth inhibition at single dose” value is less than 70%.

Consider `Cc1nc(C(=O)N2CCc3c(c(C(=O)NC4CCCC4)nn3CC(C)C)C2)cs1`, for which the “growth inhibition at single dose” value is less than 70%.

`COC(=O)c1c(NC(=O)c2cc3ccccc3oc2=O)sc2c1CCN(Cc1ccccc1)C2`: the “growth inhibition at single dose” value is less than 70%.

On to `COc1ccc(C2(C(=O)Nc3ccc(Br)cc3)CCCC2)cc1`, for which the “growth inhibition at single dose” value is less than 70%.

For `COc1ccc(C2c3ccc4ccccc4c3Oc3ncn(CCCn4ccnc4)c(=N)c32)cc1OC` (stereo not drawn), the “growth inhibition at single dose” value was less than 70%.

Turning to `O=C(Cn1nnc2ccccc2c1=O)c1ccc(C2CCCCC2)cc1`, the “growth inhibition at single dose” value was less than 70%.

Turning to `CC1(c2ccccc2)Nc2ccccc2-c2nc3ccccc3n21` (stereo not drawn), the “growth inhibition at single dose” value was less than 70%.

As for `CC(C)NC(=O)N1CCCC(C(=O)Nc2nc3ccccc3[nH]2)C1` (stereo not drawn), the “growth inhibition at single dose” value was less than 70%.

On to `NC(=O)c1ccsc1NC(=O)CSc1ncc(-c2ccccc2)n1-c1ccccc1`, for which the “growth inhibition at single dose” value is less than 70%.

With `CCN(CC)CCNc1ccnc2cc(Cl)ccc12`, the “growth inhibition at single dose” value was less than 70%.

For `CC1CC(C)C[N+](=C2C=C(N3CCCC3)CC(C)(C)C2)C1` (stereo not drawn), the “growth inhibition at single dose” value was less than 70%.

With `Cc1[nH]c2ccc(F)cc2c(=O)c1I`, the “growth inhibition at single dose” value is less than 70%.

As to `CS(=O)(=O)N1CCC(Cn2nc(Cc3cccc4ccccc34)c3c(N)ncnc32)CC1`, the “growth inhibition at single dose” value is less than 70%.

As for `Cc1ccn2cc(C(=O)Nc3nnc(CC(C)C)s3)nc2c1`, the “growth inhibition at single dose” value is less than 70%.

Take `O=C(NC1CC1)c1ccc(N2CCC(Cc3ccccc3)CC2)nc1`: the “growth inhibition at single dose” value is less than 70%.

For `O=c1nc(CCc2ccc3c(c2)OCCO3)[nH]c2ccccc12`, the “growth inhibition at single dose” value was less than 70%.

Turning to `CNC(=O)c1cc(S(=O)(=O)N2CCN(c3ccccn3)CC2)cs1`, the “growth inhibition at single dose” value is less than 70%.

`CC1(C)OB(O)c2ccc(C3=NOC(c4cc(Cl)c(F)c(Cl)c4)(C(F)(F)F)C3)cc21` (stereo not drawn): the “growth inhibition at single dose” value is less than 70%.

For the compound `C/N=c1\scc(-c2ccc(OC(F)F)cc2)n1/N=C/c1cccs1`, the “growth inhibition at single dose” value is less than 70%.

Turning to `Oc1ccccc1CN1CCN(C(c2ccccc2)c2ccccc2)CC1`, the “growth inhibition at single dose” value was less than 70%.

Turning to `COc1ccc2nc(N)nc(C)c2c1`, the “growth inhibition at single dose” value was less than 70%.

`O=C(Nc1cnc2ccccc2c1)c1cccc(NC(=O)c2cccs2)c1`: the “growth inhibition at single dose” value was less than 70%.

Turning to `Cc1ccc2oc(-c3cc(NC(=O)Cc4ccccc4)ccc3Cl)nc2c1`, the “growth inhibition at single dose” value is less than 70%.

With `O=C(Nc1ccc2c(c1)OC1(CCCCC1)O2)c1ccc[nH]c1=O`, the “growth inhibition at single dose” value was less than 70%.

With `C/N=c1\scc(-c2ccccc2OC)n1/N=C/c1ccc[nH]1`, the “growth inhibition at single dose” value is less than 70%.

Turning to `COc1ccccc1OCCCCn1c(C2CC2)nc2ccccc21`, the “growth inhibition at single dose” value is less than 70%.

As for `N=c1n(CCN2CCCCC2)c2ccccc2n1CC(=O)c1ccc(Cl)c(Cl)c1`, the “growth inhibition at single dose” value is less than 70%.

In the case of `O=C1C2=C(Nc3ccccc3SC2c2ccccc2)c2ccccc21` (stereo not drawn), the “growth inhibition at single dose” value is less than 70%.

For `O=C(Nc1ccccc1O)c1ccc(Cn2ccnc2)cc1`, the “growth inhibition at single dose” value is less than 70%.

Turning to `N#Cc1nc(-c2ccccc2)oc1S(=O)(=O)c1ccc(Cl)cc1`, the “growth inhibition at single dose” value was less than 70%.

On to `O=C(COc1ccc2[nH]c3ccccc3c(=O)c2c1)Nc1ccccc1Cc1ccccc1`, for which the “growth inhibition at single dose” value is less than 70%.

For `CCOC(=O)c1ccc(N2CCN(C(C)c3nc(C(C)C)no3)CC2)nc1` (stereo not drawn), the “growth inhibition at single dose” value is less than 70%.

Turning to `CCC(=O)c1cn(S(=O)(=O)c2ccc(C)cc2)c2ccccc12`, the “growth inhibition at single dose” value is less than 70%.

With `FC(F)(F)c1ccc(Nc2nnnc3ccccc23)cc1`, the “growth inhibition at single dose” value was less than 70%.

Turning to `Cc1cc(C)cc(COc2ccc3c(C)c(CCC(=O)O)c(=O)oc3c2C)c1`, the “growth inhibition at single dose” value is less than 70%.

With `Cc1c(CN2CCN(c3ccccn3)CC2)noc1-c1ccc(F)cc1`, the “growth inhibition at single dose” value is less than 70%.

Take `CC(=O)Nc1cccc(Oc2ccc(C(=O)Nc3ccc4ccccc4c3)cc2[N+](=O)[O-])c1`: the “growth inhibition at single dose” value is less than 70%.

As for `CC(C)C(NC(=O)Cc1cccc2ccccc12)C(=O)Nc1cccc(C#N)c1` (stereo not drawn), the “growth inhibition at single dose” value is less than 70%.

For the compound `CCn1nc(C)c(Sc2nccn2C)c1C`, the “growth inhibition at single dose” value was less than 70%.

In the case of `Fc1ccc2[nH]c3c(NCCCN4CCOCC4)ncnc3c2c1`, the “growth inhibition at single dose” value is less than 70%.
